The source of these data is US10357501B2, “Treating conditions associated with increased eotaxin with 25-hydroxyvitamin D3” (DSM IP ASSETS B.V., priority 2010, dated 2019).

The conditions of data set [1]: in vivo; cited from earlier work.
The conditions of data set [2]: considered; no test described; cited from earlier work.
Data set [3] in a line: Clinical trial: 25(OH)D levels after oral supplementation. The conditions noted are these: female, human, in vivo. How it is done:
The objective was studying and comparing the pharmacokinetic characteristics of vitamin D3 and 25-hydroxyvitamin D3 administered to humans. Equimolar quantities of both substances were investigated. The regimen was based on 20 μg/day (or its equivalent on a weekly basis) of 25-hydroxyvitamin D3. For comparative purposes, it was necessary to administer equimolar quantities of either vitamin D3 or 25-hydroxyvitamin D3. In respect to administration of vitamin D3, the dose was considered to be sufficient to overcome background variability and provide and efficacious dose to the participants. […]
Plasma concentrations of 25-hydroxyvitamin D3 (e.g., peak and steady state) were determined by obtaining samples from the subjects at various times after the dosage was ingested. For screening purposes and to establish baseline values, a blood sample was obtained prior to enrollment into the study and the clinical laboratory measured vitamin D3, 25-hydroxyvitamin D3, calcium, creatinine, albumin, and fasting glucose in the serum. […]
Twenty healthy postmenopausal women with 25-Hydroxyvitamin D3 levels below 25 ng/ml and a mean age of 61.5 years (SD ±7.2) were enrolled in this study. […] On 14 visits over 4 months, 25(OH)D levels, and 7 inflammation markers (eotaxin, IL-8, IL-12, IP-10, MCP-1, MP-1β, RANTES) were measured. […]

For data set [4] the following is noted: ingestion of 250 μg/day as a dietary supplement; cited from earlier work.

25-hydroxyvitamin D: the “blood concentration at which hypercalcemia may occur” value in data set [1] is “greater than 375 nmol/L”. In the case of `C=C1CC[C@H](O)C/C1=C/C=C1\CCC[C@]2(C)[C@@H]([C@H](C)CCCC(C)(C)O)CC[C@@H]12` [25-Hydroxyvitamin D3, 25-hydroxyvitamin D3], the “activity relative to Vitamin D3” value in data set [2] was “approximately 3 ×”. Turning to `C=C1CC[C@H](O)C/C1=C/C=C1\CCC[C@]2(C)[C@@H]([C@H](C)CCCC(C)C)CC[C@@H]12` [Vitamin D3, cholecalciferol], the “Mean 25(OH)D levels” value in data set [3] came to 13.5 ng/mL. Regarding Vitamin D, the “blood concentration of 25-hydroxyvitamin D” value in data set [4] is listed as “about 200 nmol/L”.
